In the supplement of paper PMC11616607:

Legend:
Experiment in all cases: drug sensitivity score (DSS) from 5-point dose-response viability curve (DSS (area-under-curve based score)); higher = more sensitive (stronger growth inhibition or killing); extreme values may be limits of the assay
Details in all cases: exposure time: 72 h; concentration range: 5 concentrations over 10,000-fold range
CAOV3 = test system: CAOV3
Procedure, shortened: (§1)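 Each cell line and drug received a drug sensitivity score from Breeze software, where higher means more sensitive. Zero stands for no response. Scores came from CellTiter-Glo viability readings of ovarian cancer and normal ovarian cells, 1,500 per well in 384-well plates, after 3 days at 37°C, 5% CO2 with drugs at five concentrations over a 10,000-fold range.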

COV318 = test system: COV318
Procedure, shortened: as §1

COV362 = test system: COV362
Procedure, shortened: as §1

HOSE1C = test system: HOSE1C
Procedure, shortened: as §1

HOSE2C = test system: HOSE2C
Procedure, shortened: as §1

JHOS2 = test system: JHOS2
Procedure, shortened: as §1

Kuramochi = test system: Kuramochi
Procedure, shortened: as §1

OV90 = test system: OV90
Procedure, shortened: as §1

OVCAR4 = test system: OVCAR4
Procedure, shortened: as §1

OVCAR5 = test system: OVCAR5
Procedure, shortened: as §1

OVCAR8 = test system: OVCAR8
Procedure, shortened: as §1

Ovsaho = test system: Ovsaho
Procedure, shortened: as §1

| Structure (SMILES) | drug sensitivity score (CAOV3) | drug sensitivity score (COV318) | drug sensitivity score (COV362) | drug sensitivity score (HOSE1C) | drug sensitivity score (HOSE2C) | drug sensitivity score (JHOS2) | drug sensitivity score (Kuramochi) | drug sensitivity score (OV90) | drug sensitivity score (OVCAR4) | drug sensitivity score (OVCAR5) | drug sensitivity score (OVCAR8) | drug sensitivity score (Ovsaho) |
| --- | --- | --- | --- | --- | --- | --- | --- | --- | --- | --- | --- | --- |
| NC(=O)N1CCC(CC(=O)N2CCC([C@H]3c4ncc(Br)cc4CCc4cc(Cl)cc(Br)c43)CC2)CC1 [Lonafarnib] | 8.9 | 9.2 | 1.9 | 8 | 8.9 | 8.4 | 11 | 15.8 | 9.1 | 9.1 | 9.4 | 9.8 |
| CC(=O)O[C@]1(C(C)=O)CC[C@H]2[C@@H]3C=C(C)C4=CC(=O)CC[C@]4(C)[C@H]3CC[C@@]21C [Megestrol acetate] | 0 | 0 | 0 | 0 | 0 | 0 | 0 | 0 | 0 | 0 | 0.4 | 0 |
| CC1(C)NC(=O)N(c2ccc([N+](=O)[O-])c(C(F)(F)F)c2)C1=O [Nilutamide] | 0 | 0 | 0 | 0.8 | 0 | 0.6 | 1.6 | 0 | 0 | 0.1 | 0 | 0 |
| C[C@]12CC[C@@H]3c4ccc(O)cc4C[C@@H](CCCCCCCCC[S+]([O-])CCCC(F)(F)C(F)(F)F)[C@H]3[C@@H]1CC[C@@H]2O (stereo partly drawn) [Fulvestrant] | 0 | 0 | 0 | 0 | 0 | 0 | 0 | 0 | 0 | 0 | 0 | 0 |
| Cc1sc2c(c1C)C(c1ccc(Cl)cc1)=N[C@@H](CC(=O)Nc1ccc(OCCOCCOCCOCCNc3cccc4c3C(=O)N(C3CCC(=O)NC3=O)C4=O)cc1)c1nnc(C)n1-2 (stereo partly drawn) [ARV-825] | 5.4 | 5.2 | 1.5 | 17.3 | 7.9 | 4.6 | 9.9 | 6.7 | 8.2 | 7.9 | 15.5 | 10 |
| COc1cc2c(cc1OCCCN1CCCC1)N=C(N)C21CCC1 [A-366] | 0.3 | 0 | 1.2 | 0.8 | 0 | 0 | 1.2 | 5.7 | 0.1 | 0.4 | 1 | 0.3 |
| CO[C@H]1C[C@@H]2CC[C@@H](C)[C@@](O)(O2)C(=O)C(=O)N2CCCC[C@H]2C(=O)O[C@H]([C@H](C)C[C@@H]2CC[C@@H](O)[C@H](OC)C2)CC(=O)[C@H](C)/C=C(\C)[C@@H](O)[C@@H](OC)C(=O)[C@H](C)C[C@H](C)/C=C/C=C/C=C/1C [Sirolimus] | 3.9 | 1.2 | 0 | 4.8 | 0 | 3.6 | 3.8 | 7.7 | 1.9 | 4.3 | 4 | 4.4 |
| Cc1ccc(=O)n(-c2ccccc2)c1 [Pirfenidone] | 0 | 0 | 0 | 0 | 0 | 0 | 0 | 0 | 0 | 0 | 0 | 0 |
| N#Cc1ccnc(N2C(=O)CC[C@H]2C(=O)N(c2cncc(F)c2)[C@H](C(=O)NC2CC(F)(F)C2)c2ccccc2Cl)c1 [Ivosidenib] | 0 | 0 | 0 | 0 | 0 | 0 | 0 | 0.3 | 0.1 | 0.6 | 0 | 0 |
| COc1cc(CCc2cc(NC(=O)c3ccc(N4CC(C)NC(C)C4)cc3)n[nH]2)cc(OC)c1 (stereo not drawn) [AZD4547] | 0 | 0 | 0 | 0.8 | 5.8 | 0 | 0 | 0 | 0 | 0 | 0 | 0 |
| Cc1c(F)cc(C(=O)NC2CC2)cc1-c1ccc(C(=O)NCC(C)(C)C)cn1 [Losmapimod] | 0 | 0.4 | 0 | 0 | 0 | 0 | 2 | 1.5 | 0 | 0.9 | 0.2 | 0.7 |
| CCN1CCN(Cc2ccc(Nc3ncc(F)c(-c4cc(F)c5nc(C)n(C(C)C)c5c4)n3)nc2)CC1 [Abemaciclib] | 0.4 | 1 | 1.5 | 1.6 | 0.7 | 5.5 | 2.5 | 1.5 | 0 | 7.4 | 0.7 | 3.2 |
| CCc1cc2c(cc1N1CCC(N3CCOCC3)CC1)C(C)(C)c1[nH]c3cc(C#N)ccc3c1C2=O [Alectinib] | 0 | 0 | 0 | 0 | 0 | 0 | 0 | 0 | 0 | 1.5 | 0.4 | 0 |
| COc1cc(C)c(/C=C/C(C)=C/C=C/C(C)=C/C(=O)O)c(C)c1C [Acitretin] | 0 | 0 | 0 | 0.1 | 0 | 1.3 | 0 | 0.2 | 0 | 0 | 0 | 0 |
